Read-outs that look alike come from different tables or passages of the source.
Assays:
[1] = test system: Hsp90 in HEPG2 lysate; conditions: for FP signal (raw) / FP signal / EC50: HepG2 lysate; for FP signal: raw; for EC50: oxime panel experiment 220817
[2] = target: T1, Hsp90 in C. albicans (SC5314) lysate (Candida albicans, UniProt P46598); test: biochemical; type: binding; conditions: for Ratio re. GdA: EC50 relative to GdA; for FP signal: raw; for EC50: not normalized, oxime panel experiment 220817
T1 construct: endogenous in cells; host or cells: C. albicans SC5314 whole-cell lysate

[3] = EC50 / EC50 of GdA in HepG2 lysate
[4] = EC50 relative to GdA, HEPG2 lysate
[5] = HEPG2 lysate, log concentration 0.137354 (1.372 nM)
[6] = HEPG2 lysate, log concentration 0.61437 (4.115 nM)
[7] = HEPG2 lysate, log concentration 1.09153 (12.346 nM)
[8] = HEPG2 lysate, log concentration 1.56864 (37.037 nM)
[9] = HEPG2 lysate, log concentration 2.04576 (111.111 nM)
[10] = HEPG2 lysate, log concentration 2.52288 (333.333 nM)
[11] = HEPG2 lysate, log concentration 3 (1000 nM)
[12] = HEPG2 lysate, log concentration 3.47712 (3000 nM)
[13] = HEPG2 lysate, log concentration -0.340084 (0.457 nM)
[14] = SC5314 lysate, 0.457 nM compound
[15] = SC5314 lysate, 1.372 nM compound
[16] = SC5314 lysate, 4.115 nM compound
[17] = SC5314 lysate, 12.346 nM compound
[18] = SC5314 lysate, 37.037 nM compound
[19] = SC5314 lysate, 111.111 nM compound
[20] = SC5314 lysate, 333.333 nM compound
[21] = SC5314 lysate, 1000 nM compound
[22] = SC5314 lysate, 3000 nM compound
[23] = ratio of GdA-normalized EC50s, human over fungal lysate
[24] = ratio of GdA-relative EC50 ratios, HepG2 over SC5314

T1 sequence (P46598 whole entry): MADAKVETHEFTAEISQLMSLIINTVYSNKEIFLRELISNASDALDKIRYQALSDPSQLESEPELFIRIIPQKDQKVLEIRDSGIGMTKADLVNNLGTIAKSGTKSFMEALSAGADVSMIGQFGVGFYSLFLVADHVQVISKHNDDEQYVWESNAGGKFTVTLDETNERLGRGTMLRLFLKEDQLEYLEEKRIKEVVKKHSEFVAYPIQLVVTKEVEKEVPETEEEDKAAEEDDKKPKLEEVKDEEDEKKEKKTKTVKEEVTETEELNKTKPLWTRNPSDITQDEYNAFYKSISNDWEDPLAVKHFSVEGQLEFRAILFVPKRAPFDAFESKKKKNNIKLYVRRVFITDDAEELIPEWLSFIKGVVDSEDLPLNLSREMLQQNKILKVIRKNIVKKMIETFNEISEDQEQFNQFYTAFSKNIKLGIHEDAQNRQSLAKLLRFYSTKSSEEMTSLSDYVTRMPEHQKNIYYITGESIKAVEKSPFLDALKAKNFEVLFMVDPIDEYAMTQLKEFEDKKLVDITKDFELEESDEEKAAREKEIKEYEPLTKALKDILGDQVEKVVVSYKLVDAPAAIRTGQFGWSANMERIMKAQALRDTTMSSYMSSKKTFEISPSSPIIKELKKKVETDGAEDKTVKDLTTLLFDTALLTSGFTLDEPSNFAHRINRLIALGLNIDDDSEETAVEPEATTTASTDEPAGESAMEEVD

## CC1CC2OC2C=CC=CC(=NOCc2ccccc2)Cc2c(Cl)c(O)cc(O)c2C(=O)O1 (mixture of isomers) [compound 217]
[1]; [3]
  Ratio rel. GdA (HepG2): 15.9107
[1]; [4]
  Ratio rel. GdA (HepG2): 15.9107
[1]; [5]
  FP signal, Fxn Control: 0.9806
[1]; [6]
  FP signal, Fxn Control: 0.9951
[1]; [7]
  FP signal, Fxn Control: 0.9951
[1]; [8]
  FP signal, Fxn Control: 0.9612
[1]; [9]
  FP signal, Fxn Control: 0.8592
[1]; [10]
  FP signal, Fxn Control: 0.6117
[1]; [11]
  FP signal, Fxn Control: 0.2524
[1]; [12]
  FP signal, Fxn Control: 0.1893
[1]; [13]
  FP signal, Fxn Control: 1.005
[1]; 0.457 nM
  FP signal (raw): 207
[1]; 0.457 nM compound
  FP signal: 207
[1]; 1.372 nM
  FP signal (raw): 202
[1]; 1.372 nM compound
  FP signal: 202
[1]; 4.115 nM
  FP signal (raw): 205
[1]; 4.115 nM compound
  FP signal: 205
[1]; 12.346 nM
  FP signal (raw): 205
[1]; 12.346 nM compound
  FP signal: 205
[1]; 37.037 nM
  FP signal (raw): 198
[1]; 37.037 nM compound
  FP signal: 198
[1]; 111.111 nM
  FP signal (raw): 177
[1]; 111.111 nM compound
  FP signal: 177
[1]; 333.333 nM
  FP signal (raw): 126
[1]; 333.333 nM compound
  FP signal: 126
[1]; 1000 nM
  FP signal (raw): 52
[1]; 1000 nM compound
  FP signal: 52
[1]; 3000 nM
  FP signal (raw): 39
[1]; 3000 nM compound
  FP signal: 39
[1]
  EC50: 353 nM
[2]; SC5314 lysate
  Ratio re. GdA: 23.0159
[2]; SC5314 lysate, 0.457 nM
  FP signal (raw): 197
[2]; [14]
  FP signal relative to 0 nM: 0.9426
  FP signal: 197
[2]; SC5314 lysate, 1.372 nM
  FP signal (raw): 194
[2]; [15]
  FP signal relative to 0 nM: 0.9282
  FP signal: 194
[2]; SC5314 lysate, 4.115 nM
  FP signal (raw): 198
[2]; [16]
  FP signal relative to 0 nM: 0.9474
  FP signal: 198
[2]; SC5314 lysate, 12.346 nM
  FP signal (raw): 197
[2]; [17]
  FP signal relative to 0 nM: 0.9426
  FP signal: 197
[2]; SC5314 lysate, 37.037 nM
  FP signal (raw): 192
[2]; [18]
  FP signal relative to 0 nM: 0.9187
  FP signal: 192
[2]; SC5314 lysate, 111.111 nM
  FP signal (raw): 183
[2]; [19]
  FP signal relative to 0 nM: 0.8756
  FP signal: 183
[2]; SC5314 lysate, 333.333 nM
  FP signal (raw): 134
[2]; [20]
  FP signal relative to 0 nM: 0.6411
  FP signal: 134
[2]; SC5314 lysate, 1000 nM
  FP signal (raw): 42
[2]; [21]
  FP signal relative to 0 nM: 0.201
  FP signal: 42
[2]; SC5314 lysate, 3000 nM
  FP signal (raw): 38
[2]; [22]
  FP signal relative to 0 nM: 0.1818
  FP signal: 38
[2]; SC5314 lysate, read-out: EC50
  EC50: 392 nM
[2]; [23]
  HepG2/SC5314: 0.6913
[2]; [24]
  HepG2/SC5314: 0.6913

## CC1CC2OC2C=CC=CC(=NOCCN2CCCC2=O)Cc2c(Cl)c(O)cc(O)c2C(=O)O1 (centres unmarked) [KF58333, reference compound]
[1]; [3]
  Ratio rel. GdA (HepG2): 0.4698
[1]; [4]
  Ratio rel. GdA (HepG2): 0.4698
[1]; [5]
  FP signal, Fxn Control: 0.9604
[1]; [6]
  FP signal, Fxn Control: 0.9307
[1]; [7]
  FP signal, Fxn Control: 0.5149
[1]; [8]
  FP signal, Fxn Control: 0.302
[1]; [9]
  FP signal, Fxn Control: 0.2277
[1]; [10]
  FP signal, Fxn Control: 0.2129
[1]; [11]
  FP signal, Fxn Control: 0.2277
[1]; [12]
  FP signal, Fxn Control: 0.2475
[1]; [13]
  FP signal, Fxn Control: 0.9703
[1]; 0.457 nM
  FP signal (raw): 196
[1]; 0.457 nM compound
  FP signal: 196
[1]; 1.372 nM
  FP signal (raw): 194
[1]; 1.372 nM compound
  FP signal: 194
[1]; 4.115 nM
  FP signal (raw): 188
[1]; 4.115 nM compound
  FP signal: 188
[1]; 12.346 nM
  FP signal (raw): 104
[1]; 12.346 nM compound
  FP signal: 104
[1]; 37.037 nM
  FP signal (raw): 61
[1]; 37.037 nM compound
  FP signal: 61
[1]; 111.111 nM
  FP signal (raw): 46
[1]; 111.111 nM compound
  FP signal: 46
[1]; 333.333 nM
  FP signal (raw): 43
[1]; 333.333 nM compound
  FP signal: 43
[1]; 1000 nM
  FP signal (raw): 46
[1]; 1000 nM compound
  FP signal: 46
[1]; 3000 nM
  FP signal (raw): 50
[1]; 3000 nM compound
  FP signal: 50
[1]
  EC50: 10.4 nM
[2]; EC50, SC5314 lysate
  EC50: 6.86 nM
[2]; SC5314 lysate
  Ratio re. GdA: 0.4034
[2]; SC5314 lysate, 0.457 nM
  FP signal (raw): 203
[2]; [14]
  FP signal relative to 0 nM: 0.9807
  FP signal: 203
[2]; SC5314 lysate, 1.372 nM
  FP signal (raw): 193
[2]; [15]
  FP signal relative to 0 nM: 0.9324
  FP signal: 193
[2]; SC5314 lysate, 4.115 nM
  FP signal (raw): 162
[2]; [16]
  FP signal relative to 0 nM: 0.7826
  FP signal: 162
[2]; SC5314 lysate, 12.346 nM
  FP signal (raw): 71
[2]; [17]
  FP signal relative to 0 nM: 0.343
  FP signal: 71
[2]; SC5314 lysate, 37.037 nM
  FP signal (raw): 44
[2]; [18]
  FP signal relative to 0 nM: 0.2126
  FP signal: 44
[2]; SC5314 lysate, 111.111 nM
  FP signal (raw): 38
[2]; [19]
  FP signal relative to 0 nM: 0.1836
  FP signal: 38
[2]; SC5314 lysate, 333.333 nM
  FP signal (raw): 35
[2]; [20]
  FP signal relative to 0 nM: 0.1691
  FP signal: 35
[2]; SC5314 lysate, 1000 nM
  FP signal (raw): 37
[2]; [21]
  FP signal relative to 0 nM: 0.1787
  FP signal: 37
[2]; SC5314 lysate, 3000 nM
  FP signal (raw): 36
[2]; [22]
  FP signal relative to 0 nM: 0.1739
  FP signal: 36
[2]; [23]
  HepG2/SC5314: 1.165
[2]; [24]
  HepG2/SC5314: 1.165
